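48-hour exposure; five concentrations; linearly interpolated endpoints. At the GI50, growth is halved.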 Activity calls are given as the source filed them. Cut-off read from the data, not from the text of the source: active = GI50 up to about 1.1 µM and inactive = higher.
Assays:
Assay in all cases: NCI-60 cell line screen, 48 h
786-0 = test system: 786-0
A498 = test system: A498
A549 = test system: A549
ACHN = test system: ACHN
CAKI-1 = test system: CAKI-1
CCRF-CEM = test system: CCRF-CEM
COLO 205 = test system: COLO 205
DLD-1 = test system: DLD-1
DMS-114 = test system: DMS-114
DMS-273 = test system: DMS-273
EKVX = test system: EKVX
HCC 2998 = test system: HCC 2998
HCT-116 = test system: HCT-116
HCT-15 = test system: HCT-15
HL-60 = test system: HL-60
HOP-18 = test system: HOP-18
HOP-62 = test system: HOP-62
HOP-92 = test system: HOP-92
HT-29 = test system: HT-29
IGROV-1 = test system: IGROV-1
K562 = test system: K562
KM-20L2 = test system: KM-20L2
KM12 = test system: KM12
LOX IMVI = test system: LOX IMVI
LXFL 529 = test system: LXFL 529
M14 = test system: M14
M19-MEL = test system: M19-MEL
MOLT-4 = test system: MOLT-4
Malme-3M = test system: Malme-3M
NCI-H226 = test system: NCI-H226
NCI-H23 = test system: NCI-H23
NCI-H460 = test system: NCI-H460
NCI-H522 = test system: NCI-H522
OVCAR-4 = test system: OVCAR-4
OVCAR-5 = test system: OVCAR-5
OVCAR-8 = test system: OVCAR-8
RPMI-8226 = test system: RPMI-8226
RXF 393 = test system: RXF 393
SF-268 = test system: SF-268
SF-295 = test system: SF-295
SF-539 = test system: SF-539
SK-MEL-28 = test system: SK-MEL-28
SK-MEL-2 = test system: SK-MEL-2
SK-MEL-5 = test system: SK-MEL-5
SK-OV-3 = test system: SK-OV-3
SN12C = test system: SN12C
SNB-19 = test system: SNB-19
SNB-75 = test system: SNB-75
SNB-78 = test system: SNB-78
SW-620 = test system: SW-620
TK-10 = test system: TK-10
U-251 = test system: U-251
UACC-257 = test system: UACC-257
UACC-62 = test system: UACC-62
UO-31 = test system: UO-31
XF498 = test system: XF498
BT-549 = test system: BT-549
DU-145 = test system: DU-145
Hs-578T = test system: Hs-578T
MCF7 = test system: MCF7
MDA-MB-231 = test system: MDA-MB-231
MDA-MB-435 = test system: MDA-MB-435
MDA-N = test system: MDA-N
NCI/ADR-RES = test system: NCI/ADR-RES
OVCAR-3 = test system: OVCAR-3
PC-3 = test system: PC-3
SR = test system: SR
T47D = test system: T47D
RXF 631 = test system: RXF 631

SMILES: CCN1C[C@]2(C)CC[C@H](OC)C34C1C([C@H](OC(C)=O)[C@@H]32)[C@@]1(OC)C[C@H](OC)[C@H]2C[C@@H]4[C@@H]1[C@H]2O
- GI50 (786-0): > 100 µM (inactive)
- GI50 (A498): > 100 µM (inactive)
- GI50 (A549): > 100 µM (inactive)
- GI50 (ACHN): > 100 µM (inactive)
- GI50 (CAKI-1): > 100 µM (inactive)
- GI50 (CCRF-CEM): > 100 µM (inactive)
- GI50 (COLO 205): 55.5 µM (inactive)
- GI50 (DLD-1): > 100 µM (inactive)
- GI50 (DMS-114): 82.4 µM (inactive)
- GI50 (DMS-273): > 100 µM (inactive)
- GI50 (EKVX): > 100 µM (inactive)
- GI50 (HCC 2998): > 100 µM (inactive)
- GI50 (HCT-116): > 100 µM (inactive)
- GI50 (HCT-15): 87.5 µM
- GI50 (HL-60): > 100 µM (inactive)
- GI50 (HOP-18): > 100 µM (inactive)
- GI50 (HOP-62): > 100 µM (inactive)
- GI50 (HOP-92): > 100 µM (inactive)
- GI50 (HT-29): > 100 µM (inactive)
- GI50 (IGROV-1): > 100 µM (inactive)
- GI50 (K562): 92.5 µM (inactive)
- GI50 (KM-20L2): > 100 µM (inactive)
- GI50 (KM12): > 100 µM (inactive)
- GI50 (LOX IMVI): > 100 µM (inactive)
- GI50 (LXFL 529): > 100 µM (inactive)
- GI50 (M14): > 100 µM (inactive)
- GI50 (M19-MEL): > 100 µM (inactive)
- GI50 (MOLT-4): > 100 µM (inactive)
- GI50 (Malme-3M): > 100 µM (inactive)
- GI50 (NCI-H226): > 100 µM (inactive)
- GI50 (NCI-H23): > 100 µM (inactive)
- GI50 (NCI-H460): > 100 µM (inactive)
- GI50 (NCI-H522): > 100 µM (inactive)
- GI50 (OVCAR-4): > 100 µM (inactive)
- GI50 (OVCAR-5): > 100 µM (inactive)
- GI50 (OVCAR-8): > 100 µM (inactive)
- GI50 (RPMI-8226): > 100 µM (inactive)
- GI50 (RXF 393): > 100 µM (inactive)
- GI50 (SF-268): > 100 µM (inactive)
- GI50 (SF-295): > 100 µM (inactive)
- GI50 (SF-539): > 100 µM (inactive)
- GI50 (SK-MEL-28): > 100 µM (inactive)
- GI50 (SK-MEL-2): > 100 µM (inactive)
- GI50 (SK-MEL-5): > 100 µM (inactive)
- GI50 (SK-OV-3): > 100 µM (inactive)
- GI50 (SN12C): > 100 µM (inactive)
- GI50 (SNB-19): > 100 µM (inactive)
- GI50 (SNB-75): > 100 µM (inactive)
- GI50 (SNB-78): > 100 µM (inactive)
- GI50 (SW-620): 54.2 µM (inactive)
- GI50 (TK-10): > 100 µM (inactive)
- GI50 (U-251): > 100 µM (inactive)
- GI50 (UACC-257): > 100 µM (inactive)
- GI50 (UACC-62): > 100 µM (inactive)
- GI50 (UO-31): > 100 µM (inactive)
- GI50 (XF498): > 100 µM (inactive)

SMILES: CC12CC(Br)(Br)C(=O)C3C1CCCC32
- GI50 (786-0): 4.07 µM (inactive)
- GI50 (A498): 16.8 µM (inactive)
- GI50 (A549): 14.6 µM (inactive)
- GI50 (ACHN): 5.27 µM (inactive)
- GI50 (BT-549): 2.09 µM (inactive)
- GI50 (CAKI-1): 2.65 µM (inactive)
- GI50 (CCRF-CEM): 1.36 µM (inactive)
- GI50 (COLO 205): 2.38 µM (inactive)
- GI50 (DLD-1): 4.63 µM (inactive)
- GI50 (DMS-114): 6.3 µM (inactive)
- GI50 (DMS-273): 6.58 µM (inactive)
- GI50 (DU-145): 12.4 µM (inactive)
- GI50 (EKVX): 7.1 µM (inactive)
- GI50 (HCC 2998): 6.89 µM (inactive)
- GI50 (HCT-116): 1.93 µM (inactive)
- GI50 (HCT-15): 3.61 µM
- GI50 (HL-60): 0.767 µM (active)
- GI50 (HOP-18): 9.89 µM (inactive)
- GI50 (HOP-62): 17.5 µM (inactive)
- GI50 (HOP-92): 2.17 µM (inactive)
- GI50 (HT-29): 5.47 µM (inactive)
- GI50 (Hs-578T): 12.6 µM (inactive)
- GI50 (IGROV-1): 10.1 µM (inactive)
- GI50 (K562): 2.1 µM (inactive)
- GI50 (KM-20L2): 17.4 µM (inactive)
- GI50 (KM12): 13 µM (inactive)
- GI50 (LOX IMVI): 2.68 µM (inactive)
- GI50 (LXFL 529): 2.38 µM (inactive)
- GI50 (M14): 3.64 µM (inactive)
- GI50 (M19-MEL): 8.34 µM (inactive)
- GI50 (MCF7): 4.33 µM (inactive)
- GI50 (MDA-MB-231): 3.24 µM (inactive)
- GI50 (MDA-MB-435): 3.03 µM (inactive)
- GI50 (MDA-N): 2.99 µM (inactive)
- GI50 (MOLT-4): 1.67 µM (inactive)
- GI50 (Malme-3M): 4.06 µM (inactive)
- GI50 (NCI-H226): 11.3 µM (inactive)
- GI50 (NCI-H23): 6.46 µM (inactive)
- GI50 (NCI-H460): 14.9 µM (inactive)
- GI50 (NCI-H522): 3.08 µM (inactive)
- GI50 (NCI/ADR-RES): 2.51 µM (inactive)
- GI50 (OVCAR-3): 3.15 µM (inactive)
- GI50 (OVCAR-4): 4.48 µM (inactive)
- GI50 (OVCAR-5): 17.8 µM (inactive)
- GI50 (OVCAR-8): 4.07 µM (inactive)
- GI50 (PC-3): 12.2 µM (inactive)
- GI50 (RPMI-8226): 2.84 µM (inactive)
- GI50 (RXF 393): 2.11 µM (inactive)
- GI50 (SF-268): 10.2 µM (inactive)
- GI50 (SF-295): 15.9 µM (inactive)
- GI50 (SF-539): 11.9 µM (inactive)
- GI50 (SK-MEL-28): 2.9 µM (inactive)
- GI50 (SK-MEL-2): 13.9 µM (inactive)
- GI50 (SK-MEL-5): 5.55 µM (inactive)
- GI50 (SK-OV-3): 15.3 µM (inactive)
- GI50 (SN12C): 4.57 µM (inactive)
- GI50 (SNB-19): 14.2 µM (inactive)
- GI50 (SNB-75): 8.2 µM (inactive)
- GI50 (SNB-78): 20 µM (inactive)
- GI50 (SR): 4.43 µM (inactive)
- GI50 (SW-620): 2.25 µM (inactive)
- GI50 (T47D): 2.38 µM (inactive)
- GI50 (TK-10): 6.27 µM (inactive)
- GI50 (U-251): 11.5 µM (inactive)
- GI50 (UACC-257): 8.65 µM (inactive)
- GI50 (UACC-62): 7.13 µM (inactive)
- GI50 (UO-31): 6.05 µM (inactive)
- GI50 (XF498): 8.73 µM (inactive)

SMILES: CC1(Cl)CCC2(CC(Br)=CC3OC32C)CC1Br (centres undefined)
- GI50 (A498): 26.6 µM (inactive)
- GI50 (A549): 28.6 µM (inactive)
- GI50 (CCRF-CEM): 18.6 µM (inactive)
- GI50 (DMS-114): 29.4 µM (inactive)
- GI50 (EKVX): 52.6 µM (inactive)
- GI50 (HCT-116): 18.2 µM (inactive)
- GI50 (HL-60): 15.2 µM (inactive)
- GI50 (HOP-62): 39.4 µM (inactive)
- GI50 (HOP-92): 24.9 µM (inactive)
- GI50 (HT-29): 17.9 µM (inactive)
- GI50 (IGROV-1): 42.9 µM (inactive)
- GI50 (KM12): 32.5 µM (inactive)
- GI50 (M14): 43.2 µM (inactive)
- GI50 (M19-MEL): 32.3 µM (inactive)
- GI50 (MOLT-4): 17 µM (inactive)
- GI50 (NCI-H226): 23.2 µM (inactive)
- GI50 (NCI-H23): 20.1 µM (inactive)
- GI50 (NCI-H460): 27.1 µM (inactive)
- GI50 (NCI-H522): 23.9 µM (inactive)
- GI50 (OVCAR-5): 79.4 µM (inactive)
- GI50 (OVCAR-8): 30.8 µM (inactive)
- GI50 (RXF 393): 18.3 µM (inactive)
- GI50 (RXF 631): > 10 µM (inactive)
- GI50 (SF-268): 19.2 µM (inactive)
- GI50 (SF-295): 22.6 µM (inactive)
- GI50 (SK-MEL-28): 23.6 µM (inactive)
- GI50 (SK-OV-3): 51.8 µM (inactive)
- GI50 (SNB-19): 45 µM (inactive)
- GI50 (SNB-78): 12.4 µM (inactive)
- GI50 (SR): 20.7 µM (inactive)
- GI50 (TK-10): 46.6 µM (inactive)
- GI50 (U-251): 19 µM (inactive)
- GI50 (UACC-257): 18.4 µM (inactive)
- GI50 (UACC-62): 19.2 µM (inactive)
- GI50 (UO-31): 28.6 µM (inactive)

— ChEMBL document CHEMBL1201862, “PubChem BioAssay data set” (2004)
